Assay results reported in paper PMC7656562 (Journal of medicinal chemistry, 2019).
Read-outs that look alike come from different tables or passages of the source.

What was measured:
[1] = target: T1, hCB1 (Homo sapiens, UniProt P21554); assay: cell-based
[2] = target: T1, hCB1; conditions: calcium assay, basal signaling
[3] = mouse, 0.3 mg/kg PO
[4] = tested on: SafetyScreen44 Panel targets
[5] = tested on: alcohol-induced liver steatosis; assay: Alcohol induced hepatic steatosis study; format: in vivo, mouse; conditions: female C57BL6 mice on ethanol diet; 0.03, 0.1, 0.3 mg/kg once daily oral gavage, last 2 weeks; effect at the two higher doses; p < 0.05 versus ethanol + vehicle
[6] = rat, 1 mg/kg PO
[7] = target: T1, hCB1; conditions: ratio Ki hCB2/Ki hCB1

T1 sequence (P21554 whole entry): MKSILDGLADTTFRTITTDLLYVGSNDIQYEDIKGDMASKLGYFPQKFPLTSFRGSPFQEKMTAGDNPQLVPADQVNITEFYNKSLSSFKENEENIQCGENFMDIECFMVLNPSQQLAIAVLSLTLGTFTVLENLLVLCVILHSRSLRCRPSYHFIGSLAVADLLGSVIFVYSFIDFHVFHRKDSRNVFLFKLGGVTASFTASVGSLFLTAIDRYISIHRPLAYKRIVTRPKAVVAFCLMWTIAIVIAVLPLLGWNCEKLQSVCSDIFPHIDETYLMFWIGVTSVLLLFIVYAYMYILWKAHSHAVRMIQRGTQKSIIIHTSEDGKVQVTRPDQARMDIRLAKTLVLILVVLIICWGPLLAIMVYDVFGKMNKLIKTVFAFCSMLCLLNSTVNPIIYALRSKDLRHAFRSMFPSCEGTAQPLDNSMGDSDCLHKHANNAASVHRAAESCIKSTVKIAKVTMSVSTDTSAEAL

SMILES | Kb [1] | further results
CC1(NS(=O)(=O)NC2CCCCC2)CCN(c2ncnc3c2nc(-c2ccccc2Cl)n3-c2ccc(Cl)cc2)CC1 [Compound 54, N-Cyclohexyl({1-[8-(2-chlorophenyl)-9-(4-chlorophenyl)-9H-purin-6-yl]-4-methylpiperidin-4-yl}amino)sulfonamide] | 0.017 ± 0.003 µM | 
O=C(NC1CCCCC1)NC1CCN(c2ncnc3c2nc(-c2ccccc2Cl)n3-c2ccc(Cl)cc2)CC1 [Compound 21, 3-{1-[8-(2-Chlorophenyl)-9-(4-chlorophenyl)-9H-purin-6-yl]-piperidin-4-yl}-1-cyclohexylurea] | 0.035 ± 0.01 µM | 
O=C(Nc1ccccc1F)NC1CCN(c2ncnc3c2nc(-c2ccccc2Cl)n3-c2ccc(F)cc2)CC1 [Compound 44, 3-{1-[8-(2-Chlorophenyl)-9-(4-fluorophenyl)-9H-purin-6-yl]-piperidin-4-yl}-1-(2-fluorophenyl)urea] | 3.8 ± 1.5 µM | 
O=C(NCC1CCCCC1)NC1CCN(c2ncnc3c2nc(-c2ccccc2Cl)n3-c2ccc(C(F)(F)F)nc2)CC1 [Compound 42, 3-{1-[8-(2-Chlorophenyl)-9-[6-(trifluoromethyl)pyridin-3-yl]-9H-purin-6-yl]piperidin-4-yl}-1-(cyclohexylmethyl)urea] | 0.076 ± 0.034 µM | 
O=C(Nc1ccccn1)NC1CCN(c2ncnc3c2nc(-c2ccccc2Cl)n3-c2ccc(Cl)cc2)CC1 [Compound 31, 3-{1-[8-(2-Chlorophenyl)-9-(4-chlorophenyl)-9H-purin-6-yl]-piperidin-4-yl}-1-(pyridin-2-yl)urea] | 0.15 ± 0.05 µM | 
CC(C)(C)CNC(=O)NC1CCN(c2ncnc3c2nc(-c2ccccc2Cl)n3-c2ccc(Cl)cc2)CC1 [Compound 14, 1-{1-[8-(2-Chlorophenyl)-9-(4-chlorophenyl)-9H-purin-6-yl]-piperidin-4-yl}-3-(2,2-dimethylpropyl)urea] | 0.27 ± 0.13 µM | 
O=C(Nc1ccc(F)c(F)c1)NC1CCN(c2ncnc3c2nc(-c2ccccc2Cl)n3-c2ccc(Cl)cc2)CC1 [Compound 34, 3-{1-[8-(2-Chlorophenyl)-9-(4-chlorophenyl)-9H-purin-6-yl]-piperidin-4-yl}-1-(3,4-difluorophenyl)urea] | 0.29 ± 0.08 µM | 
CC1(NC(=O)NCc2ccccc2F)CCN(c2ncnc3c2nc(-c2ccccc2Cl)n3-c2ccc(Cl)cc2)CC1 [Compound 49, 3-{1-[8-(2-Chlorophenyl)-9-(4-chlorophenyl)-9H-purin-6-yl]-4-methylpiperidin-4-yl}-1-[(2-fluorophenyl)methyl]urea] | 0.014 ± 0.007 µM | 
CC1(NC(=O)NC2CCC(F)(F)CC2)CCN(c2ncnc3c2nc(-c2ccccc2Cl)n3-c2ccc(Cl)cc2)CC1 [Compound 48, 3-{1-[8-(2-Chlorophenyl)-9-(4-chlorophenyl)-9H-purin-6-yl]-4-methylpiperidin-4-yl}-1-(4,4-difluorocyclohexyl)urea] | 0.002 ± 0.001 µM | 
O=C(NCC1CCC(F)(F)CC1)NC1CCN(c2ncnc3c2nc(-c2ccccc2Cl)n3-c2ccc(Cl)cc2)CC1 [Compound 26, 3-{1-[8-(2-Chlorophenyl)-9-(4-chlorophenyl)-9H-purin-6-yl]-piperidin-4-yl}-1-[(4,4-difluorocyclohexyl)methyl]urea] | 0.028 ± 0.015 µM | 
O=C(Nc1ccc(OC(F)F)nc1)NC1CCN(c2ncnc3c2nc(-c2ccccc2Cl)n3-c2ccc(Cl)cc2)CC1 [Compound 38, 3-{1-[8-(2-Chlorophenyl)-9-(4-chlorophenyl)-9H-purin-6-yl]-piperidin-4-yl}-1-[6-(difluoromethoxy)pyridin-3-yl]urea] |  | neutral antagonist or inverse agonist of hCB1 [2]: inverse agonists; plasma HL [3]: 11 h; EC50 or IC50 on all targets tested [4]: > 10 µM; hepatic lipid droplets (Oil Red O staining, ImageJ quantification) [5]: statistically significant reduction of liver steatosis
CC1(NC(=O)NC2CCN(c3ncnc4c3nc(-c3ccccc3Cl)n4-c3ccc(Cl)cc3)CC2)CCC(F)(F)CC1 [Compound 23, 3-{1-[8-(2-Chlorophenyl)-9-(4-chlorophenyl)-9H-purin-6-yl]-piperidin-4-yl}-1-(4,4-difluoro-1-methylcyclohexyl)urea] | 0.0004 ± 0.0003 µM | 
O=C(NC1CCN(c2ncnc3c2nc(-c2ccccc2Cl)n3-c2ccc(Cl)cc2)CC1)N1CCCC1 [Compound 16, N-{1-[8-(2-Chlorophenyl)-9-(4-chlorophenyl)-9H-purin-6-yl]-piperidin-4-yl}pyrrolidine-1-carboxamide] | 0.19 ± 0.11 µM | 
O=C(Nc1cc(C(F)(F)F)[nH]n1)NC1CCN(c2ncnc3c2nc(-c2ccccc2Cl)n3-c2ccc(Cl)cc2)CC1 [Compound 39, 1-{1-[8-(2-Chlorophenyl)-9-(4-chlorophenyl)-9H-purin-6-yl]-piperidin-4-yl}-3-[5-(trifluoromethyl)-1H-pyrazol-3-yl]urea] | 0.27 ± 0.06 µM | 
O=C(NC1CCN(c2ncnc3c2nc(-c2ccccc2Cl)n3-c2ccc(Cl)cc2)CC1)N1CCOCC1 [Compound 18, N-{1-[8-(2-Chlorophenyl)-9-(4-chlorophenyl)-9H-purin-6-yl]-piperidin-4-yl}morpholine-4-carboxamide] | 0.34 ± 0.06 µM | 
O=C(NC1CCN(c2ncnc3c2nc(-c2ccccc2Cl)n3-c2ccc(Cl)cc2)CC1)NC1(C(F)(F)F)CCCC1 [Compound 20, 1-{1-[8-(2-Chlorophenyl)-9-(4-chlorophenyl)-9H-purin-6-yl]-piperidin-4-yl}-3-[1-(trifluoromethyl)cyclopentyl]urea] | 0.012 ± 0.008 µM | 
CCCN(CC(F)(F)F)C(=O)NC1CCN(c2ncnc3c2nc(-c2ccccc2Cl)n3-c2ccc(Cl)cc2)CC1 [Compound 12, 1-{1-[8-(2-Chlorophenyl)-9-(4-chlorophenyl)-9H-purin-6-yl]-piperidin-4-yl}-3-propyl-3-(2,2,2-trifluoroethyl)urea] | 0.0012 ± 0.0006 µM | 
O=C(Nc1ccc(F)cc1F)NC1CCN(c2ncnc3c2nc(-c2ccccc2Cl)n3-c2ccc(Cl)cc2)CC1 [Compound 33, 3-{1-[8-(2-Chlorophenyl)-9-(4-chlorophenyl)-9H-purin-6-yl]-piperidin-4-yl}-1-(2,4-difluorophenyl)urea] |  | plasma HL [6]: 12 h; neutral antagonist or inverse agonist of hCB1 [2]: inverse agonists; plasma HL [3]: 12 h; time of plasma max. conc. [3]: 1 h
O=C(NC1CCN(c2ncnc3c2nc(-c2ccccc2Cl)n3-c2ccc(Cl)cc2)CC1)N1CCCCC1 [Compound 17, N-{1-[8-(2-Chlorophenyl)-9-(4-chlorophenyl)-9H-purin-6-yl]-piperidin-4-yl}piperidine-1-carboxamide] | 0.007 ± 0.004 µM | 
O=C(NCC1CCCCC1)NC1CCN(c2ncnc3c2nc(-c2ccccc2Cl)n3-c2ccc(Cl)cc2)CC1 [Compound 25, 3-{1-[8-(2-Chlorophenyl)-9-(4-chlorophenyl)-9H-purin-6-yl]-piperidin-4-yl}-1-(cyclohexylmethyl)urea] | 0.005 ± 0.003 µM | 
CC1(NC(=O)Nc2ccc(F)cc2F)CCN(c2ncnc3c2nc(-c2ccccc2Cl)n3-c2ccc(Cl)cc2)CC1 [Compound 51, 3-{1-[8-(2-Chlorophenyl)-9-(4-chlorophenyl)-9H-purin-6-yl]-4-methylpiperidin-4-yl}-1-(2,4-difluorophenyl)urea] | 0.009 ± 0.004 µM | 
Cn1cc(NC(=O)NC2CCN(c3ncnc4c3nc(-c3ccccc3Cl)n4-c3ccc(Cl)cc3)CC2)cn1 [Compound 40, 1-{1-[8-(2-Chlorophenyl)-9-(4-chlorophenyl)-9H-purin-6-yl]-piperidin-4-yl}-3-(1-methyl-1H-pyrazol-4-yl)urea] | 28 ± 8 µM | 
CN1CCC(CNC(=O)NC2CCN(c3ncnc4c3nc(-c3ccccc3Cl)n4-c3ccc(Cl)cc3)CC2)CC1 [Compound 27, 3-{1-[8-(2-Chlorophenyl)-9-(4-chlorophenyl)-9H-purin-6-yl]-piperidin-4-yl}-1-[(1-methylpiperidin-4-yl)methyl]urea] | 25 ± 12 µM | 
CC1(NC(=O)Nc2ccc(OC(F)F)nc2)CCN(c2ncnc3c2nc(-c2ccccc2Cl)n3-c2ccc(Cl)cc2)CC1 [Compound 52, 3-{1-[8-(2-Chlorophenyl)-9-(4-chlorophenyl)-9H-purin-6-yl]-4-methylpiperidin-4-yl}-1-[6-(difluoromethoxy)pyridin-3-yl]urea] | 0.046 ± 0.023 µM | 
O=C(Nc1cccnc1C(F)(F)F)NC1CCN(c2ncnc3c2nc(-c2ccccc2Cl)n3-c2ccc(Cl)cc2)CC1 [Compound 36, 3-{1-[8-(2-Chlorophenyl)-9-(4-chlorophenyl)-9H-purin-6-yl]-piperidin-4-yl}-1-[2-(trifluoromethyl)pyridin-3-yl]urea] | 0.16 ± 0.06 µM | 
CC1(NC(=O)Nc2ccccc2F)CCN(c2ncnc3c2nc(-c2ccccc2Cl)n3-c2ccc(Cl)cc2)CC1 [Compound 50, 3-{1-[8-(2-Chlorophenyl)-9-(4-chlorophenyl)-9H-purin-6-yl]-4-methylpiperidin-4-yl}-1-(2-fluorophenyl)urea] | 0.0016 ± 0.0011 µM | 
CC1(NC(=O)NC2CCCCC2)CCN(c2ncnc3c2nc(-c2ccccc2Cl)n3-c2ccc(Cl)cc2)CC1 [Compound 47, 3-{1-[8-(2-Chlorophenyl)-9-(4-chlorophenyl)-9H-purin-6-yl]-4-methylpiperidin-4-yl}-1-cyclohexylurea] | 0.007 ± 0.005 µM | Selectivity Ki CB2/CB1 [7]: >769
